Test results published in patent US20070105898A1, “Process for the production of cilostazol” (Apotex Pharmachem Inc., priority 2005, published 2007).

Assay: Particle size distribution of precipitated cilostazol particles
Assay type: physicochemical
Conditions: filtered, dried
Method: A hot solution (70-75° C.) of cilostazol (23 g) in 1-methyl-2-pyrrolidinone (69 mL) was slowly added over a period of 5-10 min into water (345 mL) at 0-5° C. with stirring. The suspension was stirred at 0-5° C. for 1-2 hrs, filtered and rinsed with water (40 mL) and methanol (20 mL). The solid was dried under vacuum at 55-60° C. to give 22.1 g (yield 96%) cilostazol as a white powder. Particle size distribution: d(0.1)=0.71 micrometres, d(0.5)=5.94 mircrometres, d(0.9)=30.59 micrometres.
A hot solution (70-75° C.) of cilostazol (20 g) in 1-methyl-2-pyrrolidinone (40 mL) was slowly added over a period of 5-10 min into toluene (250 mL) at 0-5° C. with stirring. The suspension was stirred at 0-5° C. for 1-2 hrs, filtered and rinsed with toluene (100 mL). The solid was dried under vacuum at 55-60° C. to give 18.2 g (yield 91%) cilostazol as a white powder. Particle size distribution: d(0.1)=0.80 micrometres, d(0.5)=3.90 mircrometres, d(0.9)=25.56 micrometres.

[1] = Example 2: hot 1-methyl-2-pyrrolidinone solution added into water at 0-5° C.
[2] = Example 3: hot 1-methyl-2-pyrrolidinone solution added into toluene at 0-5° C.

O=C1CCc2cc(OCCCCc3nnnn3C3CCCCC3)ccc2N1 [cilostazol, 6-[4-(1-cyclohexyl-1H-tetrazol-5-yl)butoxy]-3,4-dihydro-2(1H)-quinolinone]
Particle size distribution d(0.1) [1]: 0.71 micrometres
Particle size distribution d(0.5) [1]: 5.94 mircrometres
Particle size distribution d(0.9) [1]: 30.59 micrometres
Particle size distribution d(0.1) [2]: 0.80 micrometres
Particle size distribution d(0.5) [2]: 3.90 mircrometres
Particle size distribution d(0.9) [2]: 25.56 micrometres
